Laboratory results from BindingDB's records for PubMed 7509389 (Fujisawa Pharmaceutical, 1994).

Target: T1, Gastrin/cholecystokinin type B receptor (Rattus norvegicus, UniProt P30553)
T1 sequence (P30553 whole entry): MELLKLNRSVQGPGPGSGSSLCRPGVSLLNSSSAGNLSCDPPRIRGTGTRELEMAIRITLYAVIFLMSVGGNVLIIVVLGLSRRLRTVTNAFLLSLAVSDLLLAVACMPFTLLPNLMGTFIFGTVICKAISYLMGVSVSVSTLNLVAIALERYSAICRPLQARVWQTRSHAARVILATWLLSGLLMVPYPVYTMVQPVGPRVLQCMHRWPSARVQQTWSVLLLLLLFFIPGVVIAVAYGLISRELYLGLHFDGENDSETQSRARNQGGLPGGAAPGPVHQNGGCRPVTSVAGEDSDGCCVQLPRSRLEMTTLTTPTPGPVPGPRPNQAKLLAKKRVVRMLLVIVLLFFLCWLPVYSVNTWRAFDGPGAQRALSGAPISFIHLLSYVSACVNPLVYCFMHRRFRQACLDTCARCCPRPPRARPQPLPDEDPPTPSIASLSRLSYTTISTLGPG

A Ki of 330 nM was found for `CCCCCN(CCCOC)C(=O)C(CCC(=O)O)NC(=O)c1ccc(Cl)c(Cl)c1` (stereo unspecified) [4-(3,4-dichlorobenzamido)-5-((3-methoxypropyl)(pentyl)amino)-5-oxopentanoic acid] in this work.
